ChEMBL document CHEMBL5523764, “Discovery of NO Donor-Aurovertin Hybrids as Dual Ferroptosis and Apoptosis Inducers for Treating Triple Negative Breast Cancer” (J Med Chem, 2024)
Activity calls are given as the source filed them. The rule behind the calls is not given here.

Key:
[1] = Selectivity index, ratio of IC50 for cytotoxicity against human MCF-10A cells to IC50 for antiproliferative activity against human MDA-MB-231 cells; type: toxicity, cell-based; settings: MCF-10A cells versus MDA-MB-231 cells, read-out: Ratio IC50
MDA-MB-231 [2] = test: Antiproliferative activity against human MDA-MB-231 cells assessed as reduction in cell viability incubated for 72 hrs by MTT assay; type: functional, cell-based; settings: MDA-MB-231, 72 h
4T1 = test: Antiproliferative activity against mouse 4T1 cells assessed as reduction in cell viability incubated for 72 hrs by MTT assay; type: functional, cell-based; settings: 4T1, 72 h
[3] = Cytotoxicity against human MCF-10A cells assessed as reduction in cell viability incubated for 72 hrs by MTT assay; type: toxicity, cell-based
MDA-MB-231 [4] = test: Induction of NO release in human MDA-MB-231 cells assessed NO concentration by Griess reagent based assay; type: functional
MDA-MB-231 [5] = test: Antitumor activity against human MDA-MB-231 cells xenografted in nude mouse assessed as reduction in tumor weight at 5 mg/kg, ip administered for 30 days; type: functional, organism-based; settings: time 30.0 day
MDA-MB-231 [6] = test: Induction of ferroptosis in human MDA-MB-231 cells xenografted in nude mouse assessed as reduction in GPX4 level at 5 mg/kg, ip administered for 30 days by immunohistochemistry analysis; type: functional, organism-based; settings: time 30.0 day
MDA-MB-231 [7] = test: Antitumor activity against human MDA-MB-231 cells xenografted in nude mouse assessed as reduction in tumor size at 5 mg/kg, ip administered for 30 days; type: functional, organism-based; settings: time 30.0 day

SMILES | selectivity ratio [1] | IC50 (MDA-MB-231 [2]) [µM] | IC50 (4T1) [µM] | IC50 at 72 h [3] [µM] | Activity (MDA-MB-231 [4]) [µM] | Activity (MDA-MB-231 [5]) | Activity (MDA-MB-231 [6]) | Activity (MDA-MB-231 [7])
CC[C@H]1O[C@@]2(C)[C@H](OC(C)=O)[C@@]1(C)O[C@@H](/C=C/C=C/C=C/c1oc(=O)cc(OC)c1C)[C@@H]2OC(=O)CCC(=O)ONC(=O)CCCCOc1no[n+]([O-])c1S(=O)(=O)c1ccccc1 | > 40 | 1.23 | 2.72 | > 50 |  |  |  | 
CC[C@H]1O[C@@]2(C)[C@H](OC(C)=O)[C@@]1(C)O[C@@H](/C=C/C=C/C=C/c1oc(=O)cc(OC)c1C)[C@@H]2OC(=O)CCC(=O)ONC(=O)COCCOc1no[n+]([O-])c1S(=O)(=O)c1ccccc1 | > 33 | 1.5 | 3.42 | > 50 |  |  |  | 
CC[C@H]1O[C@@]2(C)[C@H](OC(C)=O)[C@@]1(C)O[C@@H](/C=C/C=C/C=C/c1oc(=O)cc(OC)c1C)[C@@H]2OC(=O)CCC(=O)ONC(=O)CCCCCOc1no[n+]([O-])c1S(=O)(=O)c1ccccc1 | > 48 | 1.05 | 1.89 | > 50 |  |  |  | 
CC[C@H]1O[C@@]2(C)[C@H](OC(C)=O)[C@@]1(C)O[C@@H](/C=C/C=C/C=C/c1oc(=O)cc(OC)c1C)[C@H]2OC(=O)CCC(=O)OCCCCCOc1no[n+]([O-])c1S(=O)(=O)c1ccccc1 | > 83 | 0.6 | 1.12 | > 50 | 4.6 |  |  | 
CC[C@H]1O[C@@]2(C)[C@H](OC(C)=O)[C@@]1(C)O[C@@H](/C=C/C=C/C=C/c1oc(=O)cc(OC)c1C)[C@H]2OC(=O)CCC(=O)OCCCCCCOc1no[n+]([O-])c1S(=O)(=O)c1ccccc1 | > 111 | 0.45 | 0.72 | > 50 | 4.92 |  |  | 
CC[C@H]1O[C@@]2(C)[C@H](OC(C)=O)[C@@]1(C)O[C@@H](/C=C/C=C/C=C/c1oc(=O)cc(OC)c1C)[C@@H]2OC(=O)CCCC(=O)OCc1c(-c2ccc(C)cc2)no[n+]1[O-] | > 8 | 5.72 | 7.16 | > 50 |  |  |  | 
CC[C@H]1O[C@@]2(C)[C@H](OC(C)=O)[C@@]1(C)O[C@@H](/C=C/C=C/C=C/c1oc(=O)cc(OC)c1C)[C@@H]2OC(=O)CCCCCOc1no[n+]([O-])c1S(=O)(=O)c1ccccc1 | > 50 | 0.99 | 2.14 | > 50 |  |  |  | 
COc1cccc2c1C(=O)c1c(O)c3c(c(O)c1C2=O)C[C@@](O)(C(=O)CO)C[C@@H]3O[C@H]1C[C@H](N)[C@@H](O)[C@H](C)O1 |  |  |  |  |  | Active | inactive | Active
CC[C@H]1O[C@]2(C)C(OC(=O)CCCC(=O)OCc3c(CSCCC(=O)O)no[n+]3[O-])[C@H](/C=C/C=C/C=C/c3oc(=O)cc(OC)c3C)O[C@]1(C)[C@H]2OC(C)=O (single isomer, unassigned) |  | > 10 |  |  | 1.89 |  |  | 
CC[C@H]1O[C@]2(C)C(OC(=O)CCC(=O)OCc3ccc(Oc4no[n+]([O-])c4S(=O)(=O)c4ccccc4)cc3)[C@H](/C=C/C=C/C=C/c3oc(=O)cc(OC)c3C)O[C@]1(C)[C@H]2OC(C)=O (single isomer, unassigned) |  | 5.88 | > 10 |  | 2.44 |  |  | 
CC[C@H]1O[C@@]2(C)[C@H](OC(C)=O)[C@@]1(C)O[C@@H](/C=C/C=C/C=C/c1oc(=O)cc(OC)c1C)[C@@H]2OC(=O)CCC(=O)ONC(=O)CCCOc1no[n+]([O-])c1S(=O)(=O)c1ccccc1 | > 72 | 0.69 | 1.55 | > 50 |  |  |  | 
CC[C@H]1O[C@@]2(C)[C@H](OC(C)=O)[C@@]1(C)O[C@@H](/C=C/C=C/C=C/c1oc(=O)cc(OC)c1C)[C@@H]2OC(=O)COCCOCCOc1no[n+]([O-])c1S(=O)(=O)c1ccccc1 | > 100 | 0.5 | 0.77 | > 50 |  |  |  | 
CC[C@H]1O[C@@]2(C)[C@H](OC(C)=O)[C@@]1(C)O[C@@H](/C=C/C=C/C=C/c1oc(=O)cc(OC)c1C)[C@@H]2OC(=O)CCCCCCCCCCCCCOc1no[n+]([O-])c1S(=O)(=O)c1ccccc1 |  | > 10 |  |  |  |  |  | 
CC[C@H]1O[C@@]2(C)[C@H](OC(C)=O)[C@@]1(C)O[C@@H](/C=C/C=C/C=C/c1oc(=O)cc(OC)c1C)[C@@H]2OC(=O)CCCC(=O)OCc1c(CSC[C@@H](NC(C)=O)C(=O)O)no[n+]1[O-] |  | > 10 |  |  | 1.71 |  |  | 
CC[C@H]1O[C@@]2(C)[C@H](OC(C)=O)[C@@]1(C)O[C@@H](/C=C/C=C/C=C/c1oc(=O)cc(OC)c1C)[C@@H]2OC(=O)CCCC(=O)OCc1c(-c2ccc(OC)cc2)no[n+]1[O-] | > 13 | 3.87 | 6.72 | > 50 |  |  |  | 
CC[C@H]1O[C@@]2(C)[C@H](OC(C)=O)[C@@]1(C)O[C@@H](/C=C/C=C/C=C/c1oc(=O)cc(OC)c1C)[C@@H]2OC(=O)CCCC(=O)OCc1c(-c2ccc(F)cc2)no[n+]1[O-] | > 7 | 7.24 | > 10 | > 50 | 2.27 |  |  | 

SMILES | selectivity ratio [1] | IC50 (MDA-MB-231 [2]) [µM] | IC50 (4T1) [µM] | IC50 at 72 h [3] [µM] | Activity (MDA-MB-231 [4]) [µM] | Activity (MDA-MB-231 [5]) | Activity (MDA-MB-231 [6]) | Activity (MDA-MB-231 [7])
CC(=O)O[C@H]1C(=O)[C@@]2(C)[C@H]([C@H](OC(=O)c3ccccc3)[C@]3(O)C[C@H](OC(=O)[C@H](O)[C@@H](NC(=O)c4ccccc4)c4ccccc4)C(C)=C1C3(C)C)[C@]1(OC(C)=O)CO[C@@H]1C[C@@H]2O [PACLITAXEL] | 1.7 | 4.55 | 3.84 | 7.82 |  |  |  | 
CC[C@H]1O[C@@]2(C)[C@H](OC(C)=O)[C@@]1(C)O[C@@H](/C=C/C=C/C=C/c1oc(=O)cc(OC)c1C)[C@@H]2OC(=O)CCCC(=O)OCc1c(-c2ccc(C(F)(F)F)cc2)no[n+]1[O-] | > 10 | 4.55 | 8.33 | > 50 |  |  |  | 
CC[C@H]1O[C@@]2(C)[C@H](OC(C)=O)[C@@]1(C)O[C@@H](/C=C/C=C/C=C/c1oc(=O)cc(OC)c1C)[C@@H]2OC(=O)CCCC(=O)OCc1c(-c2ccc(Cl)cc2)no[n+]1[O-] | > 10 | 4.59 | 7.86 | > 50 | 2.42 |  |  | 
N=C(N)NCCC[C@H](N)C(=O)O [ARGININE] |  |  |  |  | 1.31 |  |  | 
CC[C@H]1O[C@@]2(C)[C@H](OC(C)=O)[C@@]1(C)O[C@@H](/C=C/C=C/C=C/c1oc(=O)cc(OC)c1C)[C@@H]2OC(=O)CCCC(=O)OCc1c(-c2ccccc2)no[n+]1[O-] |  | 9.93 |  |  | 1.93 |  |  | 
CC[C@H]1O[C@@]2(C)[C@H](OC(C)=O)[C@@]1(C)O[C@@H](/C=C/C=C/C=C/c1oc(=O)cc(OC)c1C)[C@@H]2OC(=O)CCC(=O)OCCOCCOc1no[n+]([O-])c1S(=O)(=O)c1ccccc1 | > 28 | 1.75 | 2.7 | > 50 |  |  |  | 
O=S(=O)(c1ccccc1)c1no[n+]([O-])c1S(=O)(=O)c1ccccc1 | 3.1 | 1.09 | 2.14 | 3.8 | 8.06 |  |  | 
CC[C@H]1O[C@]2(C)C(OC(=O)CCC(=O)OCc3cccc(Oc4no[n+]([O-])c4S(=O)(=O)c4ccccc4)c3)[C@H](/C=C/C=C/C=C/c3oc(=O)cc(OC)c3C)O[C@]1(C)[C@H]2OC(C)=O (single isomer, unassigned) |  | > 10 |  |  | 2.15 |  |  | 
CC[C@H]1O[C@]2(C)C(OC(=O)CCCC(=O)OCc3c(CSCCCO)no[n+]3[O-])[C@H](/C=C/C=C/C=C/c3oc(=O)cc(OC)c3C)O[C@]1(C)[C@H]2OC(C)=O (single isomer, unassigned) |  | > 10 |  |  | 2.02 |  |  | 
CC[C@H]1O[C@@]2(C)[C@H](OC(C)=O)[C@@]1(C)O[C@@H](/C=C/C=C/C=C/c1oc(=O)cc(OC)c1C)[C@H]2OC(=O)CCC(=O)OCCc1ccc(Oc2no[n+]([O-])c2S(=O)(=O)c2ccccc2)cc1 | > 15 | 3.28 | 5.56 | > 50 |  |  |  | 
CC[C@H]1O[C@@]2(C)[C@H](OC(C)=O)[C@@]1(C)O[C@@H](/C=C/C=C/C=C/c1oc(=O)cc(OC)c1C)[C@@H]2OC(=O)CCCCCCCOc1no[n+]([O-])c1S(=O)(=O)c1ccccc1 | > 71 | 0.7 | 1.23 | > 50 |  |  |  | 
CC[C@H]1O[C@@]2(C)[C@H](OC(C)=O)[C@@]1(C)O[C@@H](/C=C/C=C/C=C/c1oc(=O)cc(OC)c1C)[C@@H]2OC(=O)CCCC(=O)OCc1c(CSCC(=O)O)no[n+]1[O-] |  | > 10 |  |  | 1.76 |  |  | 
CC[C@H]1O[C@@]2(C)[C@H](OC(C)=O)[C@@]1(C)O[C@@H](/C=C/C=C/C=C/c1oc(=O)cc(OC)c1C)[C@H]2OC(=O)CCC(=O)OCCCCOc1no[n+]([O-])c1S(=O)(=O)c1ccccc1 | > 119 | 0.42 | 0.55 | > 50 | 5.23 |  |  | 
CC[C@H]1O[C@@]2(C)[C@H](OC(C)=O)[C@@]1(C)O[C@@H](/C=C/C=C/C=C/c1oc(=O)cc(OC)c1C)[C@@H]2OC(=O)CCC(=O)OCC#CCOc1no[n+]([O-])c1S(=O)(=O)c1ccccc1 | > 40 | 1.23 | 2.08 | > 50 |  |  |  | 
CC[C@H]1O[C@@]2(C)[C@H](OC(C)=O)[C@@]1(C)O[C@@H](/C=C/C=C/C=C/c1oc(=O)cc(OC)c1C)[C@@H]2OC(=O)CCCC(=O)OCc1c(-c2ccc(Br)cc2)no[n+]1[O-] | > 10 | 4.75 | 4.56 | > 50 | 2.65 |  |  | 
